Assay: Solubility of MGDN in water or aqueous ammonium sulfate solution
Format: physicochemical

dissolved MGDN in the aqueous solution (emulsion formed) (above about 60° C., emulsion of MGDN and its aqueous solution): more than 5 % by weight
solubility of MGDN in water (at 10° C., in water or an aqueous ammonium sulfate solution): about 0.5 % by weight
solubility of MGDN in water (at around 60° C.): about 5 % by weight
SMILES: CC(C#N)N(CC#N)CC#N (stereo not drawn) [MGDN, methylglycinenitrile-N,N-diacetonitrile]
